Laboratory results published in patent publication US4464385A, “Treatment of diabetic complications with hydantoins” (Alcon Laboratories, Inc., priority 1982, dated 1984).

Test system: cataracts in rats
Assay: Prevention or retardation of cataracts in galactose-fed rats
Type: in vivo, rat
Conditions: 30% galactose diet, A,C,E 0.0025%, B,D 0.01%
Protocol: The compounds to be tested were:
Test compound/diet mixtures were formulated as follows: […]
Similarly, the 0.01% level was designed to provide a drug concentration of 20 mg per kilogram per day.
All animals were fed the Purina Laboratory Chow and water, ad libitum for a two day acclimatization period. The indicated test compound/diet mixture then was introduced to all animals on Study Day 1 and the animals were maintained on this diet throughout thirty days of the study.
Sufficient amounts of test compound/diet mixture were maintained in the food hoppers to allow the animals to eat ad libitum. All aliquots of test compound/diet mixture added to the food hoopers were weighed and the weights, as well as day of addition, recorded.
Twelve animals were assigned to each treatment with each compound at the indicated percentage by total weight of feed. All eyes were examined with a handheld ophthalmoscope and/or penlight.

## CSc1ccc2c(c1)C1(CCO2)NC(=O)NC1=O (stereo not drawn) [B]
Study Day 2
  % of Total Eyes, + (vacuole): 0%
  % of Total Eyes, - (Normal): 100.0%
  % of Total Eyes, N (nuclear cataract): 0%
  % of Total Eyes, S (snowflake): 0%
  Number of Eyes Observed, + (vacuole): 0 eyes
  Number of Eyes Observed, - (Normal): 24 eyes
  Number of Eyes Observed, N (nuclear cataract): 0 eyes
  Number of Eyes Observed, S (snowflake): 0 eyes
  Number of Eyes Observed, ±: 0 eyes
Study Day 3
  % of Total Eyes, + (vacuole): 0%
  % of Total Eyes, - (Normal): 100.0%
  % of Total Eyes, N (nuclear cataract): 0%
  % of Total Eyes, S (snowflake): 0%
  Number of Eyes Observed, + (vacuole): 0 eyes
  Number of Eyes Observed, - (Normal): 24 eyes
  Number of Eyes Observed, N (nuclear cataract): 0 eyes
  Number of Eyes Observed, S (snowflake): 0 eyes
  Number of Eyes Observed, ±: 0 eyes
Study Day 4
  % of Total Eyes, + (vacuole): 0%
  % of Total Eyes, - (Normal): 100.0%
  % of Total Eyes, N (nuclear cataract): 0%
  % of Total Eyes, S (snowflake): 0%
  Number of Eyes Observed, + (vacuole): 0 eyes
  Number of Eyes Observed, - (Normal): 24 eyes
  Number of Eyes Observed, N (nuclear cataract): 0 eyes
  Number of Eyes Observed, S (snowflake): 0 eyes
  Number of Eyes Observed, ±: 0 eyes
Study Day 5
  % of Total Eyes, + (vacuole): 0%
  % of Total Eyes, - (Normal): 91.7%
  % of Total Eyes, N (nuclear cataract): 0%
  % of Total Eyes, S (snowflake): 0%
  Number of Eyes Observed, + (vacuole): 0 eyes
  Number of Eyes Observed, - (Normal): 22 eyes
  Number of Eyes Observed, N (nuclear cataract): 0 eyes
  Number of Eyes Observed, S (snowflake): 0 eyes
  Number of Eyes Observed, ±: 2 eyes
Study Day 6
  % of Total Eyes, + (vacuole): 0%
  % of Total Eyes, - (Normal): 62.5%
  % of Total Eyes, N (nuclear cataract): 0%
  % of Total Eyes, S (snowflake): 0%
  Number of Eyes Observed, + (vacuole): 0 eyes
  Number of Eyes Observed, - (Normal): 15 eyes
  Number of Eyes Observed, N (nuclear cataract): 0 eyes
  Number of Eyes Observed, S (snowflake): 0 eyes
  Number of Eyes Observed, ±: 9 eyes
Study Day 8
  % of Total Eyes, + (vacuole): 8.3%
  % of Total Eyes, - (Normal): 41.6%
  % of Total Eyes, N (nuclear cataract): 0%
  % of Total Eyes, S (snowflake): 0%
  Number of Eyes Observed, + (vacuole): 2 eyes
  Number of Eyes Observed, - (Normal): 10 eyes
  Number of Eyes Observed, N (nuclear cataract): 0 eyes
  Number of Eyes Observed, S (snowflake): 0 eyes
  Number of Eyes Observed, ±: 12 eyes
Study Day 10
  % of Total Eyes, + (vacuole): 25.0%
  % of Total Eyes, - (Normal): 37.5%
  % of Total Eyes, N (nuclear cataract): 0%
  % of Total Eyes, S (snowflake): 0%
  Number of Eyes Observed, + (vacuole): 6 eyes
  Number of Eyes Observed, - (Normal): 9 eyes
  Number of Eyes Observed, N (nuclear cataract): 0 eyes
  Number of Eyes Observed, S (snowflake): 0 eyes
  Number of Eyes Observed, ±: 9 eyes
Study Day 12
  % of Total Eyes, + (vacuole): 41.6%
  % of Total Eyes, - (Normal): 29.2%
  % of Total Eyes, N (nuclear cataract): 0%
  % of Total Eyes, S (snowflake): 0%
  Number of Eyes Observed, + (vacuole): 10 eyes
  Number of Eyes Observed, - (Normal): 7 eyes
  Number of Eyes Observed, N (nuclear cataract): 0 eyes
  Number of Eyes Observed, S (snowflake): 0 eyes
  Number of Eyes Observed, ±: 7 eyes
Study Day 14
  % of Total Eyes, + (vacuole): 78.0%
  % of Total Eyes, - (Normal): 12.5%
  % of Total Eyes, N (nuclear cataract): 0%
  % of Total Eyes, S (snowflake): 0%
  Number of Eyes Observed, + (vacuole): 18 eyes
  Number of Eyes Observed, - (Normal): 3 eyes
  Number of Eyes Observed, N (nuclear cataract): 0 eyes
  Number of Eyes Observed, S (snowflake): 0 eyes
  Number of Eyes Observed, ±: 3 eyes
Study Day 16
  % of Total Eyes, + (vacuole): 83.3%
  % of Total Eyes, - (Normal): 0%
  % of Total Eyes, N (nuclear cataract): 0%
  % of Total Eyes, S (snowflake): 0%
  Number of Eyes Observed, + (vacuole): 20 eyes
  Number of Eyes Observed, - (Normal): 0 eyes
  Number of Eyes Observed, N (nuclear cataract): 0 eyes
  Number of Eyes Observed, S (snowflake): 0 eyes
  Number of Eyes Observed, ±: 4 eyes
Study Day 18
  % of Total Eyes, + (vacuole): 95.8%
  % of Total Eyes, - (Normal): 0%
  % of Total Eyes, N (nuclear cataract): 0%
  % of Total Eyes, S (snowflake): 0%
  Number of Eyes Observed, + (vacuole): 23 eyes
  Number of Eyes Observed, - (Normal): 0 eyes
  Number of Eyes Observed, N (nuclear cataract): 0 eyes
  Number of Eyes Observed, S (snowflake): 0 eyes
  Number of Eyes Observed, ±: 1 eyes
Study Day 20
  % of Total Eyes, + (vacuole): 91.7%
  % of Total Eyes, - (Normal): 0%
  % of Total Eyes, N (nuclear cataract): 0%
  % of Total Eyes, S (snowflake): 4.2%
  Number of Eyes Observed, + (vacuole): 22 eyes
  Number of Eyes Observed, - (Normal): 0 eyes
  Number of Eyes Observed, N (nuclear cataract): 0 eyes
  Number of Eyes Observed, S (snowflake): 1 eyes
  Number of Eyes Observed, ±: 1 eyes
Study Day 22
  % of Total Eyes, + (vacuole): 70.8%
  % of Total Eyes, - (Normal): 0%
  % of Total Eyes, N (nuclear cataract): 0%
  % of Total Eyes, S (snowflake): 29.2%
  Number of Eyes Observed, + (vacuole): 17 eyes
  Number of Eyes Observed, - (Normal): 0 eyes
  Number of Eyes Observed, N (nuclear cataract): 0 eyes
  Number of Eyes Observed, S (snowflake): 7 eyes
  Number of Eyes Observed, ±: 0 eyes
Study Day 24
  % of Total Eyes, + (vacuole): 45.8%
  % of Total Eyes, - (Normal): 0%
  % of Total Eyes, N (nuclear cataract): 0%
  % of Total Eyes, S (snowflake): 54.2%
  Number of Eyes Observed, + (vacuole): 11 eyes
  Number of Eyes Observed, - (Normal): 0 eyes
  Number of Eyes Observed, N (nuclear cataract): 0 eyes
  Number of Eyes Observed, S (snowflake): 13 eyes
  Number of Eyes Observed, ±: 0 eyes
Study Day 26
  % of Total Eyes, + (vacuole): 20.8%
  % of Total Eyes, - (Normal): 0%
  % of Total Eyes, N (nuclear cataract): 0%
  % of Total Eyes, S (snowflake): 79.2%
  Number of Eyes Observed, + (vacuole): 5 eyes
  Number of Eyes Observed, - (Normal): 0 eyes
  Number of Eyes Observed, N (nuclear cataract): 0 eyes
  Number of Eyes Observed, S (snowflake): 19 eyes
  Number of Eyes Observed, ±: 0 eyes
Study Day 28
  % of Total Eyes, + (vacuole): 8.3%
  % of Total Eyes, - (Normal): 0%
  % of Total Eyes, N (nuclear cataract): 0%
  % of Total Eyes, S (snowflake): 91.7%
  Number of Eyes Observed, + (vacuole): 2 eyes
  Number of Eyes Observed, - (Normal): 0 eyes
  Number of Eyes Observed, N (nuclear cataract): 0 eyes
  Number of Eyes Observed, S (snowflake): 22 eyes
  Number of Eyes Observed, ±: 0 eyes
Study Day 30
  % of Total Eyes, + (vacuole): 4.2%
  % of Total Eyes, - (Normal): 0%
  % of Total Eyes, N (nuclear cataract): 0%
  % of Total Eyes, S (snowflake): 95.8%
  Number of Eyes Observed, + (vacuole): 1 eyes
  Number of Eyes Observed, - (Normal): 0 eyes
  Number of Eyes Observed, N (nuclear cataract): 0 eyes
  Number of Eyes Observed, S (snowflake): 23 eyes
  Number of Eyes Observed, ±: 0 eyes
